In the assay the test system is activated microglial cell. As to the kind of experiment: BH4 production in an activated microglial cell. The class given is cell-based. Particulars: activated microglial cell (FIG. 12).

For `COc1cc2c(cc1O)CNCC2` [HMTIQ, 7-hydroxy-6-methoxy-1,2,3,4-tetrahydroisoquinoline], the BH4 production entry is on record as “inhibitory effect”.
